Reference: PMC7896091, “Synthesis of novel phytol-derived γ-butyrolactones and evaluation of their biological activity” (Scientific Reports, 2021)
Values belong to the molecule of their own block, whether it stands above or below them.

Columns and labels:
LoVo/DX cells = assay: Antiproliferative activity, SRB assay, doxorubicin resistant subline; type: cell-based, human
Procedure: Cell lines were cultured according to the protocol described before. […] All culture media were supplemented with 2 mM L-glutamine (Sigma-Aldrich, Germany), 100 units/mL penicillin, and 100 µg/mL streptomycin (both from Polfa Tarchomin S.A., Poland). All cell lines were grown at 37 °C with 5% CO2 humidified atmosphere. The solutions of the compounds (50 mM) were prepared by dissolving the substances in DMSO (Sigma Aldrich, Germany). […] The in vitro cytotoxic effect of all agents was examined using the MTT (MV4-11) or SRB assay, described previously. […] Each compound in each concentration was tested in triplicate in a single experiment, which was repeated 3–5 times.

BALB/3T3 cells = assay: Toxicity towards normal fibroblasts, SRB assay; type: cell-based; conditions: normal mouse fibroblasts, 72 h exposure, mean ± SD, n.a = no activity in concentration of 5, 25, 125, 625 μM
Procedure: (§1) Human biphenotypic B myelomonocytic leukemia MV4-11, human colon cancer LoVo cell line and normal mouse fibroblast BALB/3T3 cells were obtained from American Type Culture Collection (Rockville, Maryland, USA), human lung carcinoma A549 cells were obtained from European Collection of Authenticated Cell Cultures (UK). All the cell lines are being maintained at the Hirszfeld Institute of Immunology and Experimental Therapy, PAS, Wroclaw, Poland and were cultured according the procedure described before.
(§2) Cell lines were cultured according to the protocol described before. MV4-11 cells were cultured in RPMI 1640 medium (Gibco, UK) with 1.0 mM sodium pyruvate, and 10% fetal bovine serum (FBS) (all from Sigma-Aldrich, Germany). A549, LoVo and LoVo/DX cells were cultured in RPMI 1640 + Opti-MEM (1:1) (both from Gibco, UK) supplemented with 5% fetal bovine serum, 1.0 mM sodium pyruvate (LoVo and LoVo/DX cells) (all from Sigma Aldrich Germany) and 0.1 μg/mL doxorubicin chloride (Accord) (only LoVo/DX cells). BALB/3T3 cells in Dulbecco medium (IIET, Poland) supplemented with 10% fetal bovine serum (Sigma-Aldrich, Germany). All culture media were supplemented with 2 mM L-glutamine (Sigma-Aldrich, Germany), 100 units/mL penicillin, and 100 µg/mL streptomycin (both from Polfa Tarchomin S.A., Poland). All cell lines were grown at 37 °C with 5% CO2 humidified atmosphere.
(§3) The solutions of the compounds (50 mM) were prepared by dissolving the substances in DMSO (Sigma Aldrich, Germany). Then the tested compounds were diluted in culture medium to reach the final concentrations of 625, 125, 25 and 5 μM. Before adding of the tested compounds (24 h prior), the cells were plated in 96-well plates (Sarstedt, Germany) at a density of 1 × 10^4 or 0.5 × 10^4 (A549) cells per well. The assay was performed after 72 h of exposure to 625, 125, 25 and 5 μM of the tested agents. The in vitro cytotoxic effect of all agents was examined using the MTT (MV4-11) or SRB assay, described previously. The results were calculated as an IC50 (inhibitory concentration 50%) the concentration of tested agent, which is cytotoxic for 50% of the cancer cells. Each compound in each concentration was tested in triplicate in a single experiment, which was repeated 3–5 times.

MV4-11 cells = assay: Antiproliferative activity, MTT assay; type: cell-based, human
Procedure: as §1, §2, §3

A549 cells = assay: Antiproliferative activity, SRB assay; type: cell-based, human
Procedure: as §1, §2, §3

LoVo cells = assay: Antiproliferative activity, SRB assay; type: cell-based, human; conditions: for IC50: 72 h exposure, SRB, mean ± SD, n.a = no activity in concentration of 5, 25, 125, 625 μM
Procedure: as §1, §2, §3

Myzus persicae [1] = assay: Aphid settling (choice test) on treated vs control leaves of Brassica rapa subsp. pekinensis; type: in vivo; conditions: 0.1% solution in 70% ethanol, mean (± SD), n = 8, 20 aphids/replicate
Procedure: (§4) The peach potato aphids Myzus persicae (Sulzer) and the Chinese cabbage Brassica rapa subsp. pekinensis (Lour.) Hanelt were reared in laboratory at 20 °C, 65% r.h., and L16:8D photoperiod. One to seven days old apterous females of M. persicae and 3-week old plants with 4–5 fully developed leaves were used for experiments. M. persicae were obtained from the laboratory culture maintained at the Department of Botany and Ecology for many generations since 2000. All experiments were carried out under the same conditions of temperature, relative humidity, and photoperiod. The bioassays were started at 10–11.a.m. Each compound was dissolved in 70% ethanol to obtain the recommended 0.1% solution[40]. All compounds were applied on the adaxial and abaxial leaf surfaces by immersing a leaf in the ethanolic solution of a given compound for 30 s.[20]. Control leaves of similar size were immersed in 70% ethanol that was used as a solvent for the studied compounds. Experiments were performed 1 h after the compounds application to allow the evaporation of the solvent. Every plant and aphid were used only once.
This bioassay allows the study of aphid host preferences under semi-natural conditions. In the present study, aphids were given free choice between control and treated excised leaves that were placed in a Petri dish. Aphids were placed in the dish equidistance from treated and untreated leaves, so that aphids could choose between treated (on one half of a Petri dish) and control leaves (on the other half of the dish). […] Each experiment was replicated 8 times (n = 8 replicates, 20 viviparous apterous females/replicate). Aphids that were moving or not on any of the leaves were not counted.
The data of the choice-test were analyzed using Student’s t-test (STATISTICA 13.1. package). […] If aphids settled mainly on the control leaf (p < 0.05), the compound tested in the respective choice-test was stated a deterrent. From the data thus obtained the relative index of deterrence (DI) was calculated: DI = (C − T/C + T) where C was the number of aphids settled on control leaf, T was the number of aphids settled on the leaf treated with the tested compound. The value of DI ranged between 1 (ideal deterrent) and − 1 (ideal attractant)[41].

[2] = test system: caspase-3/7 in MV4-11 cells; assay: Caspase-3/7 activity determination (Ac-DEVD-ACC substrate); type: cell-based, human; conditions: MV4-11, 75 µM, 72 h
Procedure: Caspase-3/7 activity determination was performed according to the protocol previously described. The MV4-11 cells were seeded at the density of 1 × 10^5 cells/mL of culture medium on 24-well plates (Sarstedt, Germany) to the final volume of 2 mL. The cells were exposed to the test compounds at concentrations 75 μM or campthothecin (0.05 μg/mL) as a positive control, for 72 h. After 72 h of the incubation, the cells were collected and centrifuged (5 min., 4 °C, 250×g). Cells were suspended in 50 µL of ice-cold lysis buffer (50 mM HEPES, 10% (w/v) sucrose, 150 mM NaCl, 2 mM EDTA, 1% (v/v) Triton X-100, pH 7.3, IIET, Poland) and incubated 30 min. at 4 °C. After the incubation, 40 µL of each sample was transferred to a white, 96-well plate (Corning, USA) containing 160 µL of the reaction buffer (20 mM HEPES, 10% sucrose, 100 mM NaCl, 1 mM EDTA, 10 mM DTT, 0.02% Trition X-100, pH 7.3) (IIET, Wroclaw, Poland) with 9 µM Ac-DEVD-ACC fluorogenic substrate (λex = 360 nm, λem = 460 nm). The fluorescence increase correlated with the caspase-3/7 level was continuously recorded at 37 °C for 120 min using a Biotek Synergy H4 (Biokom, Warsaw, Poland). Compounds were tested in duplicates in single experiment and each experiment was repeated at least three times independently. Results were normalized to the number of cells in each well and are reported as mean relative caspase-3/7 activity compared to untreated control sample ± SD.

Myzus persicae [3] = assay: EPG monitoring of aphid probing and feeding (no-choice test); type: in vivo; conditions: 8-h EPG
Procedure: as §4
Aphid probing and the phloem sap uptake by M. persicae was monitored using the technique of electronic registration of aphid probing in plant tissues, known as EPG (= Electrical Penetration Graph), that is frequently employed in insect–plant relationship studies considering insects with sucking-piercing mouthparts[42]–[44]. In this experimental set-up, aphid and plant are connected to electrodes and thus made parts of an electric circuit, which is completed when the aphid inserts its stylets into the plant. Weak voltage is supplied in the circuit, and all changing electric properties are recorded as EPG waveforms that can be correlated with aphid activities and stylet position in plant tissues[45],[46]. The parameters describing aphid behaviour during probing and feeding, such as total time of probing, proportion of phloem patterns E1 and E2, number of probes, etc., are good indicators of plant suitability or interference of probing by chemical or physical factors in individual plant tissues[44]–[46]. In the present study, aphids were attached to a golden wire electrode with conductive silver paint (epgsystems. eu) and starved for 1 h prior to the experiment. Probing behaviour of 12 apterous females/studied compound and control was monitored for 8 h continuously with Giga-4 and Giga-8 DC EPG with 1 GΩ of input resistance recording equipment (EPG Systems, Wageningen, The Netherlands). Each aphid was given access to a freshly prepared plant and each aphid/plant combination was used only once. Various behavioural phases were labelled manually using the Stylet + software (www.epgsystems.eu). The following aphid behaviours were distinguished: no penetration (waveform 'np' – aphid stylets outside the plant), pathway phase—penetration of non-phloem tissues (waveforms 'ABC'), phloem phase (salivation into sieve elements, waveform ‘E1’ and ingestion of phloem sap, waveform ‘E2’), and xylem phase (ingestion of xylem sap, waveform 'G'). Waveform ‘G’ occurred rarely irrespective of the treatment. Therefore, in all calculations the xylem phase was added to the pathway phase and termed as probing in non-phloem tissues. The E1/E2 transition patterns were included in E2. Waveform patterns that were not terminated before the end of the experimental period (8 h) were not excluded from the calculations. The parameters derived from EPG recordings were analyzed according to their frequency and duration in configuration related to activities in peripheral and vascular tissues.
All statistical calculations related to data of the no-choice test were performed using StatSoft, Inc. (2014) STATISTICA (data analysis software system), version 12, www.statsoft.com. […]

[4] = 72 h exposure, SRB, mean ± SD, n.a = no activity in concentration of 5, 25, 125, 625 μM
[5] = 0.1% solution, mean ± SE, n = 12
[6] = activities in non-phloem tissues, mean ± SE, n = 10-12
[7] = activities in sieve elements, mean ± SE, n = 10-12

SMILES: N.N.[Cl][Pt][Cl] [Cisplatin, reference compound]
- IC50 (LoVo/DX cells; [4]): 3.45 ± 1.01 µM
- IR (index of resistance) (LoVo/DX cells; IR = IC50 against resistant LoVo/DX / IC50 against non-resistant LoVo, 0 < IR < 2 able to overcome drug resistance): 0.62
- Selectivity index SI, LoVo/DX (LoVo/DX cells; SI = IC50 BALB/3T3 / IC50 LoVo/DX): 1.29
- IC50 (BALB/3T3 cells): 4.44 ± 2.36 µM
- IC50 (MV4-11 cells; 72 h exposure, MTT, mean ± SD, n.a = no activity in concentration of 5, 25, 125, 625 μM): 2.88 ± 0.83 µM
- Selectivity index SI, MV4-11 (MV4-11 cells; SI = IC50 BALB/3T3 / IC50 MV4-11): 1.54
- IC50 (A549 cells; [4]): 3.97 ± 1.08 µM
- Selectivity index SI, A549 (A549 cells; SI = IC50 BALB/3T3 / IC50 A549): 1.12
- IC50 (LoVo cells): 5.55 ± 0.12 µM
- Selectivity index SI, LoVo (LoVo cells; SI = IC50 BALB/3T3 / IC50 LoVo): 0.80

- IC50 (LoVo cells; Homo sapiens, LoVo): 0.12 ± 0.01 µM
SMILES: COc1cccc2c1C(=O)c1c(O)c3c(c(O)c1C2=O)C[C@@](O)(C(=O)CO)C[C@@H]3O[C@H]1C[C@H](N)[C@H](O)[C@H](C)O1 [Doxorubicin]

SMILES: C=CC(C)(CCCC(C)CCCC(C)CCCC(C)C)CC(=O)OCC (stereo not shown) [compound 2, ethyl 3,7,11,15-tetramethyl-3-vinylhexadecanoate]
- Mean number of aphids settled on treated (test) leaf (Myzus persicae [1]; 1 h after access): 10.8 (± 1.7)
- Mean number of aphids settled on treated (test) leaf (Myzus persicae [1]; 2 h after access): 8.9 (± 0.9)
- Mean number of aphids settled on treated (test) leaf (Myzus persicae [1]; 24 h after access): 9.6 (± 1.6)
- Increase of caspase-3/7 activity compared to the control [2]: about 1.5 times
- Mean duration of probing (C + G + E) (Myzus persicae [3]; [5]): 1.4 ± 0.6 h
- Number of probes (Myzus persicae [3]; [5]): 17.6 ± 4.1
- Total duration of pathway (C) (Myzus persicae [3]; [5]): 4.7 ± 0.8 h
- Total duration of phloem phase (E) (Myzus persicae [3]; [5]): 2.4 ± 0.8 h
- Total duration of probing (C + G + E) (Myzus persicae [3]; [5]): 7.3 ± 0.2 h
- Number of probes before first phloem phase (Myzus persicae [3]; [6]): 14.9 ± 4.1
- Time from first probe to first phloem phase (Myzus persicae [3]; [6]): 2.9 ± 0.8 h
- Duration of first phloem phase (Myzus persicae [3]; [7]): 2.0 ± 0.8 h
- Total duration of phloem salivation E1 (Myzus persicae [3]; [7]): 2.4 ± 1.2 min
- Total duration of phloem sap ingestion E2 (Myzus persicae [3]; [7]): 2.4 ± 0.8 h
- Number of probes < 3 min (Myzus persicae [3]; before first phloem phase, mean ± SE, n = 10-12): 9.1 ± 2.7
- Proportion of salivation in phloem phase (Myzus persicae [3]; (duration of E1 / duration of E1 + E2)*100): 7.9%
- Proportion of phloem phase in total probing (Myzus persicae [3]; index = duration of phloem phase E / duration of probing C + G + E): 32.0%
